Article PMC12064818, “A general assay platform to study protein pharmacology using ligand-dependent structural dynamics” (Nature Communications, 2025)

Target: T1, FLuc-C-HiBiT (Photinus pyralis, UniProt P08659)
T1 construct: firefly luciferase with C-terminal HiBiT tag, E. coli expressed
Test: biochemical
Details: enzyme activity, 10 uM ATP; read-out: IC50 or SDR50 (mM) / FLuc E

T1 sequence (P08659 whole entry, looked up): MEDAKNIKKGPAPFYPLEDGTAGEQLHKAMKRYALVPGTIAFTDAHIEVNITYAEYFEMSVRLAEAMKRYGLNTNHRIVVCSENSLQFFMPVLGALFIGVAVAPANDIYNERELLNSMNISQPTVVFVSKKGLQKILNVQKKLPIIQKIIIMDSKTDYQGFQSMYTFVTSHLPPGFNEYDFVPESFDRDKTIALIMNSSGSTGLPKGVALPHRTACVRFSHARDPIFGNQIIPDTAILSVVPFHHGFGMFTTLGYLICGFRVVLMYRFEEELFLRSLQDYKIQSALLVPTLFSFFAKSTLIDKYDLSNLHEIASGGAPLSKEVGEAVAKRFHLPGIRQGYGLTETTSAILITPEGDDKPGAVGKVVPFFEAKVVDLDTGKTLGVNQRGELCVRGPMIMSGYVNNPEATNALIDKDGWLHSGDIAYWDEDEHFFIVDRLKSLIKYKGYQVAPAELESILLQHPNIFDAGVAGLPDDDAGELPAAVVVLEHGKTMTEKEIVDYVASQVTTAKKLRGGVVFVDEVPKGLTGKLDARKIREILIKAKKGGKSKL

Row | SMILES | IC50 [µM]
1 | Cc1ccc(-c2cc(N)n(-c3ccc(C)cc3)n2)cc1 [NCGC00141302-01] | 9.89
2 | Cc1c(C(=O)Nc2ccc(C(=O)O)cc2)nnn1-c1ccccc1 [NCGC00141304-01] | 0.0785
3 | Cn1cc(/C=C2\C(=O)Nc3cccnc32)c2ccccc21 [NCGC00161398-03] | 9.89
4 | Cc1ccc2nc(-c3ccc(/N=N/c4cc(S(=O)(=O)O)c5ccccc5c4O)cc3)sc2c1S(=O)(=O)O [NCGC00161973-01] | 12.4
5 | CCc1nn2c(-c3ccco3)ccnc2c1-c1ccc(F)cc1 [NCGC00164922-01] | 7.85
6 | Clc1ccc2c(c1)-n1cc(-c3ccccc3)nc1CO2 [NCGC00164952-01] | > 30
7 | Nc1ccc(-c2nc3ccccc3s2)cc1 [NCGC00165328-03] | 1.76
8 | Nc1nccc(-c2c(-c3ccc(F)cc3)ncn2C2CCNCC2)n1 [NCGC00165900-01] | > 30
9 | COc1ccc(OC)c(-c2nc3ccc(OC)cc3s2)c1 [NCGC00167604-01] | 8.81
10 | COc1ccc2nc(-c3ccc(Oc4ccccc4)cc3)sc2c1 [NCGC00167605-01] | 11.1
11 | C=Cc1ccc(-c2nc3ccc(OC)cc3s2)cc1 [NCGC00167606-01] | 0.442
12 | COc1ccc2nc(-c3cccc(C(C)=O)c3)sc2c1 [NCGC00167608-01] | 1.24
13 | CN(C(=O)OC(C)(C)C)c1ccc(-c2nc3ccccc3s2)cc1 [NCGC00167619-02] | 0.0989
14 | O=C(O)c1ccc(-c2noc(-c3ccc(F)cc3)n2)cc1 [NCGC00168098-01] | 0.442
15 | O=C(O)c1ccc(-c2noc(-c3cccc(Cl)c3)n2)cc1 [NCGC00168100-03] | 7
16 | O=C(O)c1ccc(-c2noc(-c3ccc(Cl)cc3)n2)cc1 [NCGC00168101-01] | 0.785
17 | COc1ccc(-c2nc(-c3ccc(C(=O)O)cc3)no2)cc1 [NCGC00168104-02] | 0.111
18 | O=C(O)c1ccc(-c2noc(-c3ccc(C(F)(F)F)cc3)n2)cc1 [NCGC00168758-01] | 0.313
19 | O=C(O)c1cccc(-c2noc(-c3ccccc3F)n2)c1 [NCGC00168759-10] | 0.00624

Row | SMILES | IC50 [µM]
20 | O=C(O)c1cccc(-c2noc(-c3ccccc3Cl)n2)c1 [NCGC00168762-01] | 0.00351
21 | O=C(O)c1cccc(-c2noc(-c3cccc(Cl)c3)n2)c1 [NCGC00168763-01] | 0.007
22 | O=C(O)c1cccc(-c2noc(-c3ccc(Cl)cc3)n2)c1 [NCGC00168764-01] | 0.00221
23 | COc1ccccc1-c1nc(-c2cccc(C(=O)O)c2)no1 [NCGC00168765-01] | 0.00624
24 | O=C(O)c1cccc(-c2noc(-c3cccc(C(F)(F)F)c3)n2)c1 [NCGC00168769-01] | 0.0157
25 | O=C(O)c1cccc(-c2noc(-c3ccc(C(F)(F)F)cc3)n2)c1 [NCGC00168770-01] | 0.00351
26 | COC(=O)c1cccc(-c2noc(-c3ccccc3F)n2)c1 [NCGC00183594-01] | 3.51
27 | O=C(O)c1ccccc1-c1noc(-c2ccccc2F)n1 [NCGC00183910-01] | 15.7
28 | CCOc1ccc(C(=O)Nc2ccc(-c3nc4ccccc4s3)cc2)cc1[N+](=O)[O-] [NCGC00188053-01] | > 30
29 | Oc1cc(-c2nc3ccccc3s2)cc2c1OCCN(Cc1cccn1-c1ncccn1)C2 [NCGC00239686-01] | > 30
30 | Cc1noc(C)c1CC(=O)N1CCOc2c(cc(-c3nc4ccccc4s3)cc2OC2CCOC2)C1 (centres unmarked) [NCGC00239833-01] | > 30
31 | Cc1cc2c(c(-c3nc4ccccc4s3)c1)OC(CNC(=O)c1occc1C)C2 (centres unmarked) [NCGC00240406-01] | 12.4
32 | Oc1ccc(Cl)cc1CN1CCOc2c(O)cc(-c3nc4ccccc4s3)cc2C1 [NCGC00240488-01] | > 30
33 | Cc1c(CN2CCOc3c(O)cc(-c4nc5ccccc5s4)cc3C2)cnn1C [NCGC00240749-01] | > 30
34 | O=C(Nc1n[nH]c2cc(-c3ccccc3)ccc12)C1CC1 [NCGC00242141-02] | 12.4
35 | O=C(O)c1cccc(-c2noc(-c3cc([N+](=O)[O-])cc([N+](=O)[O-])c3)n2)c1 [NCGC00250195-01] | 3.13
36 | Nc1ncnc2c1ncn2[C@H]1O[C@H](CO)[C@@H](O)[C@@H]1O [NCGC00262556-01] | > 30
37 | COc1cccc(-c2nc3cc(NC(=O)c4ccc(C)c([N+](=O)[O-])c4)ccc3s2)c1 [NCGC00348177-01] | > 30

Next, values leading:

Row | IC50 [µM] | SMILES
38 | 11.1 | Cc1ccc2nc(-c3ccc(NC(=O)c4ccccc4S(C)(=O)=O)cc3)sc2c1 [NCGC00141658-01]
39 | 0.495 | O=C(Nc1nc2c(F)cccc2s1)c1ccc2c(c1)OCCO2 [NCGC00141660-01]
40 | 9.89 | O=C(Nc1c(C(=O)O)oc2ccccc12)c1ccc(C(F)(F)F)cc1 [NCGC00141808-01]
41 | > 30 | NC(=O)C1CCN(c2ncnc3c2cnn3-c2ccccc2)CC1 [NCGC00141852-02]
42 | 25.4 | CCN(CC)CCOc1ccc(-c2nc3cc(Cl)ccc3s2)cc1 [NCGC00160568-01]
43 | > 30 | C=C1[C@H](CO)[C@@H](O)C[C@@H]1n1cnc2c(=O)[nH]c(N)nc21 [NCGC00164563-11]
44 | 17.6 | CC[n+]1c(/C=C/N(C)c2ccccc2)n(-c2ccccc2)c2ccc(-c3nc4ccccc4s3)cc21 [NCGC00165744-02]
45 | 0.0785 | CNc1ccc(-c2nc3ccccc3s2)cc1 [NCGC00165760-02]
46 | 14 | COc1ccc2nc(-c3ccc(N4CCN(C(=O)OC(C)(C)C)CC4)cc3)sc2c1 [NCGC00167609-02]
47 | 9.89 | CC(=O)c1cccc(-c2nc3ccccc3s2)c1 [NCGC00167620-01]
48 | 4.95 | c1ccc(COc2cccc(-c3nc4ccccc4s3)c2)cc1 [NCGC00167622-01]
49 | 12.4 | c1ccc(COc2ccccc2-c2nc3ccccc3s2)cc1 [NCGC00167623-01]
50 | 12.4 | FC(F)(F)c1cc(-c2nc3ccccc3s2)cc(C(F)(F)F)c1 [NCGC00167627-01]
51 | 0.197 | O=C(O)c1ccc(-c2noc(-c3ccccc3F)n2)cc1 [NCGC00168096-02]
52 | 4.95 | O=C(O)c1ccc(-c2noc(-c3cccc(F)c3)n2)cc1 [NCGC00168097-02]
53 | 1.11 | O=C(O)c1ccc(-c2noc(-c3ccccc3Cl)n2)cc1 [NCGC00168099-01]
54 | 1.97 | COc1ccccc1-c1nc(-c2ccc(C(=O)O)cc2)no1 [NCGC00168102-02]
55 | 12.4 | O=C(O)c1ccc(-c2noc(-c3ccccc3C(F)(F)F)n2)cc1 [NCGC00168105-01]
56 | 8.81 | O=C(O)c1ccc(-c2noc(-c3cccc(C(F)(F)F)c3)n2)cc1 [NCGC00168106-02]
57 | 0.007 | O=C(O)c1cccc(-c2noc(-c3cccc(F)c3)n2)c1 [NCGC00168760-01]
58 | 0.00442 | O=C(O)c1cccc(-c2noc(-c3ccc(F)cc3)n2)c1 [NCGC00168761-01]
59 | 0.00394 | COc1cccc(-c2nc(-c3cccc(C(=O)O)c3)no2)c1 [NCGC00168766-01]
60 | 0.00248 | COc1ccc(-c2nc(-c3cccc(C(=O)O)c3)no2)cc1 [NCGC00168767-01]
61 | 0.0624 | O=C(O)c1cccc(-c2noc(-c3ccccc3C(F)(F)F)n2)c1 [NCGC00168768-02]
62 | > 30 | Nc1ncnc2c1ncn2[C@@H]1O[C@H](CO)[C@@H](O)[C@@H]1O [NCGC00178869-10]

Row | IC50 [µM] | SMILES
63 | > 30 | Cc1ccc(-c2nc3ccccc3s2)cc1NC(=O)c1ccc(-c2cccc(Cl)c2)o1 [NCGC00187468-01]
64 | > 30 | Oc1cc(-c2nc3ccccc3s2)cc2c1OCCN(Cc1cccn1-c1nccs1)C2 [NCGC00238878-01]
65 | 17.6 | Cc1cc2c(c(-c3nc4ccccc4s3)c1)OC(CNC(=O)CCc1cccnc1)C2 (centres unmarked) [NCGC00239520-01]
66 | > 30 | O=C(c1ccccc1C(F)(F)F)N1CCOc2c(cc(-c3nc4ccccc4s3)cc2OC2CCOC2)C1 (centres unmarked) [NCGC00240022-01]
67 | > 30 | c1ccc2sc(-c3cc4c(c(OC5CCOC5)c3)OCCN(Cc3cccn3-c3nccs3)C4)nc2c1 (centres unmarked) [NCGC00240062-01]
68 | > 30 | CC(CCc1ccc(O)cc1)N1CCOc2c(O)cc(-c3nc4ccccc4s3)cc2C1 (centres unmarked) [NCGC00240078-01]
69 | > 30 | Oc1cc(-c2nc3ccccc3s2)cc2c1OCCN(Cc1cccn1-c1ccccn1)C2 [NCGC00240089-01]
70 | > 30 | Oc1cc(-c2nc3ccccc3s2)cc2c1OCCN(Cc1cccn1-c1ccc(Cl)cn1)C2 [NCGC00240283-01]
71 | > 30 | COc1ccc(C(=O)NCC2Cc3cc(C)cc(-c4nc5ccccc5s4)c3O2)c(OC)c1OC (centres unmarked) [NCGC00240387-01]
72 | > 30 | Oc1cc(-c2nc3ccccc3s2)cc2c1OCCN(Cc1c[nH]nc1-c1ccc(Cl)cc1)C2 [NCGC00240676-01]
73 | 9.89 | COC(=O)c1ccc2c(c1)C(=Cc1cc(Br)c(O)c(Br)c1)C(=O)N2 [NCGC00242004-02]
74 | > 30 | Cc1ccc(C(=O)NC2CC2)cc1-c1ccc2[nH]ncc2c1 [NCGC00242033-03]
75 | > 30 | CN(c1ccc(NC(=O)Nc2ccc(OC(F)(F)F)cc2)cc1)c1ccnc(Nc2cccc([S+](N)(=O)[O-])c2)n1 [NCGC00242042-02]
76 | 17.6 | COc1cccc(-n2cnc3c(N/N=C/c4ccncc4)ncnc32)c1 [NCGC00242129-02]
77 | 0.785 | c1ccc(Nc2ncc(-c3ccccc3)o2)cc1 [NCGC00242146-02]
78 | 11.1 | O=C1Nc2ccc(C(=O)c3ccco3)cc2C1=Cc1cc(Cl)c(O)c(Cl)c1 [NCGC00242150-05]
79 | > 30 | N[S+](=O)([O-])c1cccc(N/C=C2\C(=O)Nc3ccccc32)c1 [NCGC00242167-02]
80 | > 30 | N#Cc1c(NC(=O)c2cccc3ccccc23)sc2c1CCCC2 [NCGC00242227-03]
81 | 12.4 | O=C(Nc1ccccc1C(=O)O)c1ccccc1 [NCGC00245456-03]
82 | 0.007 | O=C(O)c1cccc(-c2noc(-c3cccc([N+](=O)[O-])c3)n2)c1 [NCGC00253775-01]
83 | > 30 | O=C(CSc1ccc(F)cc1)Nc1ccccc1-c1nc2ccccc2s1 [NCGC00274247-01]
84 | 1.57 | COc1ccc(-c2nc3cc(F)ccc3s2)cc1OC [NCGC00344018-01]
85 | > 30 | O=C(CCC[S+](=O)([O-])c1ccc(Cl)cc1)Nc1ccc(O)c(-c2nc3ccccc3s2)c1 [NCGC00347270-01]
86 | > 30 | COc1cccc(-c2nc3cc(NC(=O)c4ccc(F)c(C#N)c4)ccc3s2)c1 [NCGC00350766-01]
